The source of these data is patent US8895585B2, “Nicotinamide derivative or salt thereof” (FUJIFILM Corporation, priority 2010, dated 2014).

Each structure is given as a SMILES string.

Assay [1] concerns the target T1, glutathione S-transferase (GST)-fused full-length human Syk protein (Homo sapiens, UniProt P43405).
T1 construct: (GST)-fused full-length human Syk protein; GST (glutathione S-transferase); purchased Carna Biosciences
The experiment in a line: Syk enzyme assay. In kind it is biochemical. Particulars: Syk enzyme assay, Test Example 1; read-out: IC50 of Syk-inhibitory activity. A digest of the protocol:
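Baculovirus-expressed enzyme (1.2 ng) was preincubated with compound in HEPES pH 7.0/MgCl2/DTT buffer, 2 min shaking then 13 min at room temperature. Biotin-EDPDYEWPSA-NH2 (0.4 μM final) and ATP (27 μM final) were added for 40 min at room temperature. EDTA stop, streptavidin-XL/PT66-K TR-FRET at 615/665 nm gave IC50.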

In assay [2] the test system is THP-1 cells. In words: Antibody-dependent phagocytosis assay. The format is cell-based. Particulars: Homo sapiens; THP-1 cells induced to differentiate with IFNγ; opsonized Escherichia coli; Table 23; read-out: IC50 upon phagocytosis inhibition. The method, then:
THP-1 cells (2×10^5 cells/ml) which are human monocyte-like cell line were cultured in the presence of 10 ng/ml IFNγ for 2 days, so that the cells were induced to differentiate into macrophage-like cells. THP-1 cells that had been induced to differentiate were collected. The cells (5×10^4 cells/well) were reacted with test compounds having given concentrations at room temperature for 30 minutes. Thereafter, Escherichia coli (Life Technologies) labeled with a pH-sensitive dye (pHrodo) was subjected to opsonization using an anti-Escherichia coli antibody (Molecular Probes). Then, the resultant was added to THP-1 cells mixed with test compounds that had been induced to differentiate, followed by incubation at 37° C. for 3 hours. At the time of addition of opsonized Escherichia coli, cell-permeable fluorescent dye (Calcein AM) were simultaneously added thereto, and phagocytosis of opsonized Escherichia coli in viable cells was quantitatively determined using an IN Cell Analyzer.
In addition, the following are used in Table 23 to denote standards for evaluating IC50 upon phagocytosis inhibition. • A: Up to 1 μM • B: 1 to 3 μM • C: 3 to 6 μM

Assay [3] deals with THP-1 cells. In words: TNFα generation assay. The format is cell-based, human. Particulars: Table 22, read-out: IC50 in TNFα generation assay. An outline of the steps:
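THP-1 cells differentiated to macrophage-like cells with 10 ng/ml IFN-γ for 2 days, preincubated with compound 30 min at room temperature, then cultured 7 h on plates coated with human IgG (10 μg/ml). Secreted TNFα measured by ELISA or AlphaLISA.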

Where [4] appears, read: Homo sapiens, THP-1, THP-1 cells.

On to `NC(=O)c1cc(F)c(N[C@@H]2CCCC[C@@H]2N)nc1Nc1ccnc2[nH]ccc12` (relative stereo) [Example 004-060], for which the results for the IC50 (in assay [1]; in the assay with THP-1 cells [2]; in the assay with THP-1 cells [3] (setting [4])) were less than 10 nM, 1000 to 3000 nM and less than 65 nM, respectively.
As to `NC(=O)c1cc(F)c(N[C@@H]2CCCC[C@@H]2N)nc1Nc1cc(F)c2[nH]ccc2c1` (relative stereo) [Example 004-079, 6-(cis-2-aminocyclohexylamino)-5-fluoro-2-((7-fluoro-1H-indol-5-yl)amino)nicotinamide], the IC50 in assay [1] is less than 10 nM; with THP-1 cells [2] it was 1000 to 3000 nM; in the assay with THP-1 cells [3] (setting [4]), less than 65 nM.
Take `COc1cccc2cc(Nc3nc(N[C@@H]4CCCC[C@@H]4N)c(F)cc3C(N)=O)cnc12` (relative stereo) [Example 004-120, 6-(cis-2-aminocyclohexylamino)-5-fluoro-2-((8-methoxyquinolin-3-yl)amino)nicotinamide]: the IC50 is less than 10 nM in assay [1] and less than 1000 nM in the assay on THP-1 cells [2].
As to `N#Cc1cc(Nc2nc(N[C@@H]3CCCC[C@@H]3N)c(F)cc2C(N)=O)cnc1N1CCOCC1` (relative stereo) [Example 004-228, 6-((cis-2-aminocyclohexyl)amino)-2-((5-cyano-6-morpholinopyridin-3-yl)amino)-5-fluoronicotinamide], the IC50 in assay [1] fell in the range of 10 to 50 nM; in the assay on THP-1 cells [2] it was 1000 to 3000 nM; with THP-1 cells [3] (setting [4]) it was 65 to 130 nM.
Take `NC(=O)c1cc(F)c(NC2CCCCC2N)nc1Nc1cncc(-c2ccccc2)c1` (stereo not shown) [Example 002-001]: the IC50 in assay [1] was less than 10 nM; in the assay on THP-1 cells [2], 1000 to 3000 nM; in the assay on THP-1 cells [3] (setting [4]), less than 65 nM.
Turning to `Cc1ncc(Nc2nc(NC3CCCCC3N)c(F)cc2C(N)=O)cc1-n1nccn1` (stereo not shown) [Example 002-134], the figures for the IC50 (in assay [1]; in the assay on THP-1 cells [2]; in the assay on THP-1 cells [3] (setting [4])) were less than 10 nM, 1000 to 3000 nM and 65 to 130 nM, respectively.
The corresponding values for `CC(=O)Nc1cccc2cc(Nc3nc(N[C@@H]4CCCC[C@@H]4N)c(F)cc3C(N)=O)cnc12` [Example 004-008] are less than 10 nM, less than 1000 nM and less than 65 nM.
In the same order, the values of `Cn1ccc2c(Nc3nc(N[C@@H]4CCCC[C@@H]4N)c(F)cc3C(N)=O)ccnc21` [Example 004-013] are less than 10 nM, 1000 to 3000 nM and less than 65 nM.
Turning to `Cc1ccc(Nc2nc(N[C@@H]3CCCC[C@@H]3N)c(F)cc2C(N)=O)cn1` [Example 004-017], the IC50 lay within 10 to 50 nM in assay [1], 3000 to 6000 nM in the assay with THP-1 cells [2] and 65 to 130 nM in the assay on THP-1 cells [3] (THP-1 cells).
In the case of `COc1cncc(Nc2nc(N[C@@H]3CCCC[C@@H]3N)c(F)cc2C(N)=O)c1` [Example 004-031], the IC50 is less than 10 nM in assay [1], 1000 to 3000 nM in the assay on THP-1 cells [2] and 130 to 200 nM with THP-1 cells [3] (setting [4]).
Regarding `NC(=O)c1cc(F)c(N[C@@H]2CCCC[C@@H]2N)nc1Nc1cncc(-n2nccn2)c1` [Example 004-042], the IC50 in assay [1] is less than 10 nM; in the assay on THP-1 cells [2] it was 1000 to 3000 nM; in the assay with THP-1 cells [3] (setting [4]), 65 to 130 nM.
As for `COc1cc(Nc2nc(NC[C@H](C)N)c(F)cc2C(N)=O)cc(OC)n1` [Example 006-098, (S)-6-((2-aminopropyl)amino)-2-((2,6-dimethoxypyridin-4-yl)amino)-5-fluoronicotinamide], the IC50 is less than 10 nM in assay [1], less than 1000 nM with THP-1 cells [2] and less than 65 nM with THP-1 cells [3] (setting [4]).
The corresponding values for `COCCOc1cc(Nc2nc(N[C@@H](CN)CC(C)C)c(F)cc2C(N)=O)ccn1` [Example 006-157, (R)-6-((1-amino-4-methylpentan-2-yl)amino)-5-fluoro-2-((2-(2-methoxyethoxy)pyridin-4-yl)amino)nicotinamide] are less than 10 nM, less than 1000 nM and 65 to 130 nM.
`NC(=O)c1cc(F)c(N[C@@H]2CCCC[C@@H]2N)nc1Nc1ccc(N2CCOCC2)nc1` [Example 006-165, 6-(((1R,2S)-2-aminocyclohexyl)amino)-5-fluoro-2-((6-morpholinopyridin-3-yl)amino)nicotinamide]: the IC50 in assay [1] was 10 to 50 nM; in the assay with THP-1 cells [2], 1000 to 3000 nM; in the assay with THP-1 cells [3] (setting [4]), 65 to 130 nM.
Take `COCCOc1ccc2cc(Nc3nc(N[C@@H]4CCCC[C@@H]4N)c(F)cc3C(N)=O)cnc2c1` [Example 006-173, 6-(((1R,2S)-2-aminocyclohexyl)amino)-5-fluoro-2-((7-(2-methoxyethoxy)quinolin-3-yl)amino)nicotinamide]: the values for the IC50 (in assay [1]; with THP-1 cells [2]; in the assay with THP-1 cells [3] (THP-1 cells)) were less than 10 nM, 1000 to 3000 nM and 65 to 130 nM, respectively.
For the compound `Cc1cc(Nc2nc(N[C@@H](CN)CC(C)C)c(F)cc2C(N)=O)cnc1C` [Example 006-177, (R)-6-((1-amino-4-methylpentan-2-yl)amino)-2-((5,6-dimethylpyridin-3-yl)amino)-5-fluoronicotinamide], the results for the IC50 (in assay [1]; in the assay on THP-1 cells [2]; in the assay with THP-1 cells [3] (setting [4])) were less than 10 nM, 1000 to 3000 nM and 130 to 200 nM, respectively.
The corresponding values for `CC[C@@H](Nc1nc(Nc2ccc3c(cnn3CC)c2)c(C(N)=O)cc1F)[C@H](C)N` [Example 006-211, 6-(((2S,3R)-2-aminopentan-3-yl)amino)-2-((1-ethyl-1H-indazol-5-yl)amino)-5-fluoronicotinamide] are less than 10 nM, 1000 to 3000 nM and less than 65 nM.
The corresponding values for `CCC[C@@H](Nc1nc(Nc2cncc(-n3cccn3)c2)c(C(N)=O)cc1F)[C@H](C)N` [Example 006-219, 2-((5-(1H-pyrazol-1-yl)pyridin-3-yl)amino)-6-(((2S,3R)-2-aminohexan-3-yl)amino)-5-fluoronicotinamide] are less than 10 nM, 1000 to 3000 nM and 65 to 130 nM.
As to `CCC[C@@H](Nc1nc(Nc2ccnc(OC)c2)c(C(N)=O)cc1F)[C@H](C)N` [Example 006-249, 6-(((2S,3R)-2-aminohexan-3-yl)amino)-5-fluoro-2-((2-methoxypyridin-4-yl)amino)nicotinamide], the IC50 in assay [1] was less than 10 nM; with THP-1 cells [2], 1000 to 3000 nM; with THP-1 cells [3] (setting [4]) it was less than 65 nM.
As to `CC[C@@H](Nc1nc(Nc2cncc(-c3ccccc3F)c2)c(C(N)=O)cc1F)[C@H](C)N` [Example 006-257, 6-(((2S,3R)-2-aminopentan-3-yl)amino)-5-fluoro-2-((5-(2-fluorophenyl)pyridin-3-yl)amino)nicotinamide], the IC50 was less than 10 nM in assay [1], 1000 to 3000 nM in the assay with THP-1 cells [2] and less than 65 nM with THP-1 cells [3] (setting [4]).
With `CC[C@@H](Nc1nc(Nc2ccc3c(OC)nccc3c2)c(C(N)=O)cc1F)[C@H](C)N` [Example 006-263, 6-(((2S,3R)-2-aminopentan-3-yl)amino)-5-fluoro-2-((1-methoxyisoquinolin-6-yl)amino)nicotinamide], the IC50 in assay [1] is less than 10 nM; in the assay with THP-1 cells [2], 1000 to 3000 nM; in the assay on THP-1 cells [3] (setting [4]), less than 65 nM.
For the compound `CC[C@@H](Nc1nc(Nc2cncc(-c3ccccc3)c2)c(C(N)=O)cc1F)[C@H](C)N` [Example 006-270, 6-(((2S,3R)-2-aminopentan-3-yl)amino)-5-fluoro-2-((5-phenylpyridin-3-yl)amino)nicotinamide], the figures for the IC50 (in assay [1]; with THP-1 cells [2]; in the assay with THP-1 cells [3] (setting [4])) were less than 10 nM, 1000 to 3000 nM and less than 65 nM, respectively.
Take `NC(=O)c1cc(F)c(NC2CCCCC2N)nc1Nc1cccc(C(F)(F)F)c1` (stereo not shown) [Example 008-007]: the IC50 in assay [1] is less than 10 nM; in the assay with THP-1 cells [2], 3000 to 6000 nM.
Turning to `NC(=O)c1cc(Nc2nc(NC3CCCC[C@@H]3N)c(F)cc2C(N)=O)ccn1` (stereo partly shown) [Example 029-012], the IC50 in the assay on THP-1 cells [2] lay in the range of 3000 to 6000 nM.
For the compound `C[C@H](CN)Nc1nc(Nc2ccc3ncccc3c2)c(C(N)=O)cc1F` [Example 39-3, (R)-6-((1-aminopropan-2-yl)amino)-5-fluoro-2-((quinolin-6-yl)amino)nicotinamide], the IC50 in assay [1] is less than 10 nM; with THP-1 cells [3] (setting [4]), less than 65 nM.
Take `NC[C@H](Nc1nc(Nc2ccc3ncccc3c2)c(C(N)=O)cc1F)c1ccccc1` [Example 39-4, (R)-6-((2-amino-1-phenylethyl)amino)-5-fluoro-2-((quinolin-6-yl)amino)nicotinamide]: the IC50 in assay [1] was less than 10 nM; with THP-1 cells [3] (setting [4]), 65 to 130 nM.
Regarding `NC(=O)c1cc(F)c(N[C@@H]2CCCC[C@@H]2N)nc1Nc1cncc(-c2cccc(N)c2)c1` [Example 043-000], the IC50 in assay [1] was less than 10 nM; with THP-1 cells [3] (THP-1 cells), 65 to 130 nM.
In the case of `Cc1cc(Nc2nc(N[C@H](CCCO)[C@H](C)N)c(F)cc2C(N)=O)cnc1C` [Example 044-000], the IC50 was 10 to 50 nM in assay [1] and 65 to 130 nM in the assay with THP-1 cells [3] (setting [4]).
